Data as given in patent publication US8163774B2, “Amide-substituted 8-N-benzimidazoles, method for the production thereof, and use of the same as medicaments” (Sanofi-Aventis, priority 2005, dated 2012).

These compounds were tested against T1, DPP-IV from porcine kidneys (Sus scrofa, UniProt P22411) (assay: Measurement of the DPP-IV activity (fluorimetric, H-Ala-Pro-AFC substrate)). Details: DPP-IV 1 mU/ml, substrate H-Ala-Pro-AFC 15 μM, Tris/HCl pH 7.4, room temperature.
T1 construct: DPP-IV from porcine kidneys (Sigma, Munich); purchased Sigma, Munich; host or cells: porcine kidney tissue
T1 sequence (P22411 whole entry): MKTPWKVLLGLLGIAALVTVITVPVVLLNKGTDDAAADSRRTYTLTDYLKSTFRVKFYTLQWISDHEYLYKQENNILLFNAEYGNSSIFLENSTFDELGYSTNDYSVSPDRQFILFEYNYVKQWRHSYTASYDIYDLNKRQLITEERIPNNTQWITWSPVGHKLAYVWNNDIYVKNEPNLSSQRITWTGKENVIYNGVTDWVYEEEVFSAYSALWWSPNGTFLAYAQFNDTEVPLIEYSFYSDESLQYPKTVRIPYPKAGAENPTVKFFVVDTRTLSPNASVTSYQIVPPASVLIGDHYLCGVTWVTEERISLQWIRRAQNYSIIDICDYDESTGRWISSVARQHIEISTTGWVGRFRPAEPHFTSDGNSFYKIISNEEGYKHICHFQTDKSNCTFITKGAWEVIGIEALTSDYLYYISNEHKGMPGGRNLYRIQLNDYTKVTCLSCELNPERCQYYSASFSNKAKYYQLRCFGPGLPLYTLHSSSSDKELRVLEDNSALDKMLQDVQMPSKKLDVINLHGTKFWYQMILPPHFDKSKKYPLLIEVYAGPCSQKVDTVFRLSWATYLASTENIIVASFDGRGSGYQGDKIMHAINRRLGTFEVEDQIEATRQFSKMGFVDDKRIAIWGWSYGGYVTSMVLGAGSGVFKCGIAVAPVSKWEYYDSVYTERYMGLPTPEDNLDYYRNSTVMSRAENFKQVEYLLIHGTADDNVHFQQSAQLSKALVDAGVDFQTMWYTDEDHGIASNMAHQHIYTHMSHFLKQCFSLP
Format: biochemical
Method: Measurement of the DPP-IV activity:
DPP-IV from porcine kidneys (Sigma, Munich)
H-Ala-Pro-AFC (Bachem, Weil am Rhein)
DPP-IV (1 mU/ml, end concentration)
H-Ala-Pro-AFC (15 μm end concentration)
in Tris/HCl (40 mM, pH 7.4), total volume 0.2 ml
The reaction was performed at room temperature for different periods (typically 10 minutes) and stopped at the end of the reaction by adding 20 μl of ZnCl2 (1 M). The conversion of H-AIa-Pro-AFC was determined fluorimetrically by measuring the emission at 535 nm on excitation at 405 nm. In the case of addition of inhibitors, the buffer volume added was adjusted such that a total volume of the test mixture of 200 μl was maintained.
IC50 values for inhibitors were determined by varying the inhibitor concentrations at the given substrate concentration of 15 μM. Ki and Km values were determined by corresponding variation of substrate and inhibitor concentration as described (Dixon, M. and Webb, E. C. (1979) Enzymes, third edition, pp. 47-206, Academic Press). The values for Km, IC50 and Ki were calculated using a commercially available software package (Leatherbarrow, R. J. (1992) GraFit Version 3.0, Erithacus Software Ltd. Staines, U.K.).

Row | IC50 | Compound
1 | 2500 nM | N[C@@H]1CCCN(c2nc3ccc(C(=O)NCc4cccnc4)cc3n2Cc2ccc(F)cc2)C1 [Example 5]
2 | 1000 nM | N[C@@H]1CCCN(c2nc3ccc(C(=O)NCc4cccc(C(F)(F)F)c4)cc3n2Cc2ccc(F)cc2)C1 [Example 2]
3 | 1800 nM | CC(C)=CCn1c(N2CCC[C@@H](N)C2)nc2ccc(C(=O)Nc3ccc(F)cc3)cc21 [Example 11]
4 | 4300 nM | N[C@@H]1CCCN(c2nc3cc(C(=O)NCc4ccc(Cl)cc4)ccc3n2Cc2ccc(F)cc2)C1 [Example 6]
